“Also recorded” adds a separate entry of the source. Read-outs that look alike come from different tables or passages of the source.
Tests used:
CXXC5-DVL interaction [1] = molecular target: T1, CXXC5-DVL interaction (Homo sapiens, UniProt O14640); test: in vitro CXXC5-DVL PPI inhibition screening assay (FITC-tagged PTD-DBMP on DVL-PDZ, fluorescence); assay type: binding; conditions: for inhibition at 30 µM: read-out: CXXC5-DVL inhibitory activity (%)
T1 sequence (O14640 251-323 limits assumed): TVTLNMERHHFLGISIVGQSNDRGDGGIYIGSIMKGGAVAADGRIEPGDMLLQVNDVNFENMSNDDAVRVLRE
Description: Screening for compounds that inhibit the CXXC5-DVL interaction. […] CELL. DEATH. DIFFER. […] After the addition of 10 μM FITC-tagged PTD-DBMP to each well, each compound in the chemical library or control (DMSO) was treated to the well at a final concentration of 30 μM. The fluorescence intensity was measured using a Fluorstar Optima microplate reader (BGM Lab Technologie, Ortenberg, Germany) and normalized as follows: “(‘compounds-treated group’−‘blank’)/(‘DMSO-treated control’−‘blank’)*100”.

HFD-fed mice = test: HFD-induced obesity/diabetes mice, 5-day oral courses at weeks 8/9 and 12; assay type: in vivo; conditions: HFD mice; for levels of GTT/ITT, total cholesterol, fasting glucose, triglyceride, FFAs in serum: A3334 25, metformin 100, sitagliptin 50 mpk (FIG. 38B-38F); for persistence of fasting glucose control after end of treatment / fasting glucose level: p.o. daily 5 days at weeks 8/9 and 12; for persistence of fasting glucose control after end of treatment: A3334 25, sitagliptin 50, metformin 100 mg/kg; for fasting glucose level: A3334, A3051, I3O 25, sitagliptin 50, metformin 100 mg/kg
From the text: Animals. The generation of Cxxc5^−/− mice has been described previously. Cxxc5 heterozygous mice were intercrossed for four generations to obtain littermate wild-type and Cxxc5^−/− mice and were maintained on a C57BL/6 background. Six-week-old Cxxc5^+/+ and Cxxc5^−/− mice were fed HFD for 8 weeks. Wild-type male C57BL/6 mice (KOATECH, Seoul, Korea) were fed HFD consisting of 60% calories from fat (Research Diet, D12492) for 8 weeks. To validate that the insulin resistance mouse model was successfully established, fasting glucose levels were assessed with a One Touch Ultra glucometer (LifeScan). Subsequently, each HFD-fed mouse with a fasting glucose level higher than 16.7 mmol/L was orally administered A3334 (25 mg kg^−1), sitagliptin (50 mg kg^−1), or metformin (100 mg kg^−1) each day for 5 days at weeks 8 and 12. After the removal of the drugs, mice were maintained for 3 weeks on the HFD. To monitor pancreas regeneration, six-week-old Cxxc5^+/+ and Cxxc5^−/− mice were fed an HFD as above. After dietary treatment for 4 weeks, the mice were intraperitoneally injected with STZ (50 mg/kg/d) for 1 week and the control group were injected with saline. After 2 weeks, Cxxc5^+/+ mice were administered A3334 (25 mg kg^−1) and sitagliptin (50 mg kg^−1) per day by oral gavage for 4 weeks. For GTT or ITT, mice were injected with D-glucose (1.5 g/kg body weight) after overnight starvation or human insulin (0.75 units/kg body weight) after 4 h starvation, respectively. Tail blood was drawn at 0, 15, 30, 60, 120, 180 min intervals and blood glucose level was measured with a One Touch Ultra glucometer. All mice were maintained under temperature-controlled and light-controlled (standard 12 h light/dark cycle) conditions and provided with food and water ad libitum. All protocols were reviewed and approved by the Institutional Review Board of Severance Hospital, Yonsei University College of Medicine (09-013).
Blood chemistry. Total blood of mice was collected by cardiac puncture after fasting. The blood was allowed to clot for 30 min and was then centrifuged for 10 min at 1,000×g to obtain supernatant to measure metabolic parameters. ELISA assay kits were used to assess serum insulin (Millipore), serum FFA (Cayman Chemical), serum adiponectin (ABclonal). The insulin function test was evaluated by HOMA-IR and was calculated as fasting plasma glucose (m mol/l)×fasting serum insulin (mU/l)/22.5. Serum chemistry variables included total cholesterol, HDL-cholesterol, glucose, TG, ALT, AST, ALP, Ca, and Mg concentration. The calibration of serum parameters was performed using the quality control card supplied with the FUJI DRI-CHEM slides whenever slides from a new lot were used. […]
Hematoxylin and eosin (H&E) staining. Dissected tissues were fixed in 4% neutral paraformaldehyde and embedded in paraffin. The paraffin sections were cut at a thickness of 4 μm and subjected to H&E staining. The adipocyte cell size was measured in 20 randomly chosen microscopic areas from 3 independent animals using a Nikon bright-field optical microscope (Nikon TE-2000U). The average adipocyte size was determined using Image J software. […]
Metabolic monitoring and body composition. Metabolic performance (energy intake and energy expenditure) was studied using a PHENOMASTER automated combined indirect calorimetry system (TSE system GmBH). The mice were first acclimated for 24 h in a metabolic chamber and were provided with food and water. They were then subsequently evaluated for 3 days to measure oxygen consumption (VO2), carbon dioxide production (VCO2), ambulatory counts, and respiratory exchange ratio. An LF50 body composition analyzer (Bruker) was used to determine body composition (lean body mass and total body fat) of the mice. The temperature for these studies remained at 22° C., with a 12 h light/dark cycle. Standard in-house software was used for energy expenditure.
Quantitative real-time polymerase chain reaction (PCR). […]

MCD-induced NASH mice = test: MCD diet-induced NASH mice; assay type: in vivo; conditions: MCD diet 7 weeks, then 25 mg/kg daily oral gavage 3 weeks
Description: NASH study. Eight-week-old wild-type male C57BL/6N mice (KOATECH, Seoul, Korea) were fed on the methionine-choline deficient (MCD) diet for 7 weeks, followed by treatment with vehicle, A3334, A3051, or I3O of (25 mg kg^−1) sitagliptin (25 mg kg^−1) for another 3 weeks via daily oral gavage.
Collagen staining. 4 µm-liver tissues sections were stained using two common collagen staining methods. For Masson's trichrome staining, slides were fixed in Bouin's solution for 1 h. After incubation in Weigert's iron hematoxylin solution for 10 min, the slides were stained with Biebrich Scarlet-Acid Fuchsin and Aniline blue for 5 min. The collagen fibers were stained blue and the nuclei were stained black. For picrosirius red staining, sections were stained with Weigert's solution for 8 min and picrosirius red for 1 h. The collagen fibers were stained red with blue nuclei.

CXXC5-DVL interaction [2] = molecular target: T1, CXXC5-DVL interaction; test: Dvl-CXXC5 in vitro binding assay, (PTD-DBMP)-(PZD-DVL), concentration dependent; conditions: FIG. 33A-33C; unit inferred; read-out: IC50, in vitro (PTD-DBMP)-(PZD-DVL) binding analyses
HFD-induced obese mice = test: HFD-induced obese mice, oral administration during 16 weeks of HFD; assay type: in vivo; conditions: HFD 16 weeks, 25 mpk oral
Description: Anti-obesity effects of […], a small molecule […] inhibitor. Referring now to FIG. 34, C57BL/6N mice were fed HFD for 16 weeks with or without oral administration of 25 mpk […] or Orlistat. Orlistat is an anti-obesity drug that is thought to act by limiting the absorption of fats from the diet (e.g., a lipase inhibitor). […] Referring now to FIG. 35, The C57BL/6N mice were grown with HFD for 16 weeks with or without oral administration of 25 mpk of […], […], and I3O. […] The increase in adipocyte cell sizes and enhancement of inflammation (evaluated by crown like structures; blue; FIG. 35B) were suppressed by treatment with […] in the HFD mice.

Wnt/β-catenin signaling = Wnt/β-catenin signaling (TOPFlash) reporter luciferase assay in HEK293-TOP cells; assay type: cell-based
Description: Luciferase reporter assay. HEK293-TOP cells were seeded in 24-well plates. Cells were treated with A3334 at a concentration of 1, 5, and 10 μM for 24 h. Total cell lysates were extracted with 35 μl of 5× Reporter Lysis Buffer per well according to the manufacturer's instructions (Promega). A total of 35 μl of luciferin was added and luciferase activity was measured using a Fluorstar Optima microplate reader.
Wnt/β-catenin signaling reporter luciferase assay. HEK293-TOP cells were seeded were seeded in 96-well plates at a density of 2.5×10^4 cells per well. Cells were treated with individual chemicals at a concentration of 1, 5, 10 µM for 24 h. Total cell lysates were extracted with 25 µl of 5× Reporter Lysis Buffer per well according to the manufacturer's instruction (Promega, Madison, WI). Luciferin (25 µl) was added and luciferase activity was measured using FLUOSTAR (BMG labtech, Offenburg, Germany).

CN1CCc2cc(O)cc3c2[C@H]1Cc1ccc(O)c(O)c1-3 [Compound 9]
inhibition at 30 µM (CXXC5-DVL interaction [1]; 30 μM): 89.4%

Cc1cc(C)c2c(O)nc(SCC(=O)c3ccc(O)c(O)c3)nc2n1 [Compound 3]
inhibition at 30 µM (CXXC5-DVL interaction [1]; 30 μM): 88.2%

CC(N)(Cc1ccc(O)c(O)c1)C(=O)O (stereo not shown) [Compound 14]
inhibition at 30 µM (CXXC5-DVL interaction [1]; 30 μM): 85.2%

O=c1cc(O)cc(/C=C/c2ccc(O)c(O)c2)o1 [Compound 11]
inhibition at 30 µM (CXXC5-DVL interaction [1]; 30 μM): 90%

O=c1c(O)c(-c2cc(O)c(O)c(O)c2)oc2cc(O)cc(O)c12 [Compound 13]
inhibition at 30 µM (CXXC5-DVL interaction [1]; 30 μM): 85.2%

COc1ccc(C2CC(C(F)(F)F)n3ncc(C(=O)O)c3N2)cc1OC (stereo not shown) [Compound 2]
inhibition at 30 µM (CXXC5-DVL interaction [1]; 30 μM): 90.6%

COc1ccc(C)cc1/N=N/c1ccc(O)c2nc(/C=N/O)ccc12 [Compound 1]
inhibition at 30 µM (CXXC5-DVL interaction [1]; 30 μM): 85.2%

O=C(OCCN1CCOCC1)C1(c2ccccc2)CCCCC1 [Compound 18]
inhibition at 30 µM (CXXC5-DVL interaction [1]; 30 μM): 86.8%

Oc1cc(O)cc(/C=C/c2ccc(O)c(O)c2)c1 [Compound 17]
inhibition at 30 µM (CXXC5-DVL interaction [1]; 30 μM): 85.2%

COc1ccc(C2CC(=O)C3=C(C2)Nc2onc(C)c2C3c2ccc(O)c(O)c2)cc1OC (stereo not shown) [Compound 7]
inhibition at 30 µM (CXXC5-DVL interaction [1]; 30 μM): 90.9%

COC(=O)C1=C(C)N/C(=C/c2cc(C)n(-c3ccccc3F)c2C)C1=O [Compound 4]
inhibition at 30 µM (CXXC5-DVL interaction [1]; 30 μM): 87.6%

O=c1c(O)c(-c2ccc(O)cc2O)oc2cc(O)cc(O)c12 [Compound 15]
inhibition at 30 µM (CXXC5-DVL interaction [1]; 30 μM): 85.4%

CCN(CC)S(=O)(=O)c1ccc(OC)c(Nc2cc(-c3ccccc3)nc(C)n2)c1 [Compound 6]
inhibition at 30 µM (CXXC5-DVL interaction [1]; 30 μM): 58.2%

CN(C)C(=N)N=C(N)N [metformin, reference compound]
serum ALT, AST, FFA (and TG) (HFD-fed mice): increased by metformin | levels of GTT/ITT, total cholesterol, fasting glucose, triglyceride, FFAs in serum (HFD-fed mice): weaker than those of A3333 | persistence of fasting glucose control after end of treatment (HFD-fed mice): this prolonged effect was not shown; also recorded: showed an increased fasting glucose level after their second application | fasting glucose level (HFD-fed mice): reduced similarly by treatment with all of these compounds at initial applications

N[C@@H](CC(=O)N1CCn2c(nnc2C(F)(F)F)C1)Cc1cc(F)c(F)cc1F [sitagliptin, reference compound]
hepatosteatosis (H&E) (MCD-induced NASH mice): also reduced hepatosteatosis, but revealed only marginal effects compared to A3334 | mRNA of M1 and M2 macrophage marker genes in epiWAT (HFD-fed mice): did not significantly change the expression of inflammation or the Wnt/β-catenin signaling target genes | serum ALT, AST, FFA (and TG) (HFD-fed mice): weakly reduced by SITA even at a higher concentration | levels of GTT/ITT, total cholesterol, fasting glucose, triglyceride, FFAs in serum (HFD-fed mice): weaker than those of A3333 | hepatic steatosis (lipid droplets, fatty liver, hepatic TG) (HFD-fed mice; H&E, Oil Red O): exhibited only a marginal effect | Wnt/β-catenin target genes and lipogenesis/inflammation genes in white adipose tissue (HFD-fed mice; mRNA): did not significantly change the expression of inflammation or the Wnt/β-catenin signaling target genes | lipogenesis and gluconeogenesis genes in liver (HFD-fed mice; mRNA): reduced by both A3334 and SITA, but A3334 showed better effectiveness | persistence of fasting glucose control after end of treatment (HFD-fed mice): this prolonged effect was not shown; also recorded: showed an increased fasting glucose level after their second application | fasting glucose level (HFD-fed mice): reduced similarly by treatment with all of these compounds at initial applications

O=C(O)C1Sc2[nH]c(=O)sc2C2c3cc(Br)cc(Br)c3OC(=O)C12 (stereo not shown) [Compound 5]
inhibition at 30 µM (CXXC5-DVL interaction [1]; 30 μM): 90.5%

O=C1Nc2ccccc2/C1=C1/Nc2ccccc2/C1=N\O [Compound I3O, Indirubin-3′-oxime, reference compound]
IC50 (CXXC5-DVL interaction [2]): 0.0989 µM | hepatosteatosis (H&E) (MCD-induced NASH mice): also reduced hepatosteatosis, but revealed only marginal effects compared to A3334 | inhibition of CXXC5-DVL interaction (in words) (CXXC5-DVL interaction [1]): identified as initial hits | inhibition at 30 µM (CXXC5-DVL interaction [1]; 30 μM): 89% | inhibition of CXXC5-DVL interaction (in words) (CXXC5-DVL interaction [1]; listed as #12): repeatedly identified as CXXC5-DVL inhibitors | adipocyte cell size and inflammation (crown like structures) (HFD-induced obese mice): showed reduction in adipocyte size and anti-inflammatory effects, but those effects were lower when compared to that of the A3334 treatment | Wnt/β-catenin (TOPFlash) reporter activity (Wnt/β-catenin signaling): showed effectiveness in the activation of Wnt/β-catenin pathway | fasting glucose level (HFD-fed mice): also reduced fasting glucose. However, effects of A3051 and I3O is similar to or little bit weaker than SITA

CN(C)c1ccc(O)c2c1C[C@H]1C[C@H]3[C@H](N(C)C)C(O)=C(C(N)=O)C(=O)[C@@]3(O)C(O)=C1C2=O [Compound 16]
inhibition at 30 µM (CXXC5-DVL interaction [1]): 87.9%

NC(Cc1cc(O)c(O)cc1O)C(=O)O (stereo not shown) [Compound 10]
inhibition at 30 µM (CXXC5-DVL interaction [1]): 90.3%
